#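 Growth conditions: 96-well plates. Treatment: test compound, 48 hours, 5 concentrations. Analysis: linear interpolation between bracketing concentrations; unreached endpoints set to highest concentration. The concentration for 50% growth inhibition is given as GI50. TGI marks complete inhibition of growth.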
# Assays:
# Test in all cases: NCI tumour cell line growth inhibition, 48 h
# CAKI-1 renal = test system: CAKI-1 renal
# EKVX NSCLC = test system: EKVX NSCLC
# IGROV1 ovarian = test system: IGROV1 ovarian
# NCI-H460 lung = test system: NCI-H460 lung
# UACC-62 melanoma = test system: UACC-62 melanoma
# RPMI-8226 leukemia = test system: RPMI-8226 leukemia
# OVCAR-4 ovarian = test system: OVCAR-4 ovarian
# SW-620 colon = test system: SW-620 colon
# HOP-62 NSCLC = test system: HOP-62 NSCLC
# MOLT-4 leukemia = test system: MOLT-4 leukemia
# HOP-92 NSCLC = test system: HOP-92 NSCLC
# DU-145 prostate = test system: DU-145 prostate
# SK-MEL-5 melanoma = test system: SK-MEL-5 melanoma
# MCF7 breast = test system: MCF7 breast
# M14 melanoma = test system: M14 melanoma
# HT29 colon = test system: HT29 colon
# A498 renal = test system: A498 renal
# SNB-75 CNS = test system: SNB-75 CNS
# BT-549 breast = test system: BT-549 breast
# HCC-2998 colon = test system: HCC-2998 colon
# UACC-257 melanoma = test system: UACC-257 melanoma
# A549 NSCLC = test system: A549 NSCLC
# NCI/ADR-RES ovarian = test system: NCI/ADR-RES ovarian
# MALME-3M melanoma = test system: MALME-3M melanoma
# SF-539 CNS = test system: SF-539 CNS
# SF-295 CNS = test system: SF-295 CNS
# HCT-116 colon = test system: HCT-116 colon
# NCI-H23 lung = test system: NCI-H23 lung
# OVCAR-5 ovarian = test system: OVCAR-5 ovarian
# MDA-MB-435 = test system: MDA-MB-435
# MDA-MB-231 breast = test system: MDA-MB-231 breast
# SK-MEL-28 melanoma = test system: SK-MEL-28 melanoma
# PC-3 prostate = test system: PC-3 prostate
# U251 CNS = test system: U251 CNS
# HCT-15 colon = test system: HCT-15 colon
# TK-10 renal = test system: TK-10 renal
# 786-0 renal = test system: 786-0 renal
# ACHN renal = test system: ACHN renal
# SK-OV-3 ovarian = test system: SK-OV-3 ovarian
# SF-268 CNS = test system: SF-268 CNS
# SNB-19 CNS = test system: SNB-19 CNS
# KM12 colon = test system: KM12 colon
# OVCAR-8 ovarian = test system: OVCAR-8 ovarian
# SN12C renal = test system: SN12C renal
# COLO 205 colon = test system: COLO 205 colon
# HS 578T breast = test system: HS 578T breast
# HL-60(TB) leukemia = test system: HL-60(TB) leukemia
# T-47D breast = test system: T-47D breast
# CCRF-CEM leukemia = test system: CCRF-CEM leukemia
# K-562 leukemia = test system: K-562 leukemia
# SR leukemia = test system: SR leukemia
# UO-31 renal = test system: UO-31 renal
# SK-MEL-2 melanoma = test system: SK-MEL-2 melanoma
# RXF 393 renal = test system: RXF 393 renal
smiles,measurement,setting,value
C#C[C@]1(O)CC[C@H]2[C@@H]3CC=C4c5sc(Nc6cccc(F)c6)nc5CC[C@]4(C)[C@H]3CC[C@@]21C,GI50,CAKI-1 renal,1.03 µM
same,TGI,CAKI-1 renal,10.8 µM
same,GI50,EKVX NSCLC,1.65 µM
same,TGI,EKVX NSCLC,15.2 µM
same,GI50,IGROV1 ovarian,1.95 µM
same,TGI,IGROV1 ovarian,7.2 µM
same,GI50,NCI-H460 lung,1.16 µM
same,TGI,NCI-H460 lung,3.02 µM
same,GI50,UACC-62 melanoma,1.25 µM
same,TGI,UACC-62 melanoma,3.87 µM
same,GI50,RPMI-8226 leukemia,0.204 µM
same,TGI,RPMI-8226 leukemia,0.615 µM
same,GI50,OVCAR-4 ovarian,2.59 µM
same,TGI,OVCAR-4 ovarian,16.3 µM
same,GI50,SW-620 colon,1.72 µM
same,TGI,SW-620 colon,4.5 µM
same,GI50,HOP-62 NSCLC,2.15 µM
same,TGI,HOP-62 NSCLC,13.6 µM
same,GI50,MOLT-4 leukemia,0.306 µM
same,TGI,MOLT-4 leukemia,0.947 µM
same,GI50,HOP-92 NSCLC,2.19 µM
same,TGI,HOP-92 NSCLC,7.62 µM
same,GI50,DU-145 prostate,1.49 µM
same,TGI,DU-145 prostate,3.97 µM
same,GI50,SK-MEL-5 melanoma,1.6 µM
same,TGI,SK-MEL-5 melanoma,3.22 µM
same,GI50,MCF7 breast,0.963 µM
same,TGI,MCF7 breast,3.69 µM
same,GI50,M14 melanoma,1.31 µM
same,TGI,M14 melanoma,5.87 µM
same,GI50,HT29 colon,1.52 µM
same,TGI,HT29 colon,6.06 µM
same,GI50,A498 renal,0.368 µM
same,TGI,A498 renal,2.03 µM
same,GI50,SNB-75 CNS,0.31 µM
same,TGI,SNB-75 CNS,6.08 µM
same,GI50,BT-549 breast,0.456 µM
same,TGI,BT-549 breast,3.55 µM
same,GI50,HCC-2998 colon,2.41 µM
same,TGI,HCC-2998 colon,6.46 µM
same,GI50,UACC-257 melanoma,2.31 µM
same,TGI,UACC-257 melanoma,17 µM
same,GI50,A549 NSCLC,2.73 µM
same,TGI,A549 NSCLC,20.3 µM
same,GI50,NCI/ADR-RES ovarian,2.32 µM
same,TGI,NCI/ADR-RES ovarian,7.61 µM
same,GI50,MALME-3M melanoma,1.49 µM
same,TGI,MALME-3M melanoma,4.71 µM
same,GI50,SF-539 CNS,0.221 µM
same,TGI,SF-539 CNS,1.06 µM
same,GI50,SF-295 CNS,0.208 µM
same,TGI,SF-295 CNS,0.499 µM
same,GI50,HCT-116 colon,0.982 µM
same,TGI,HCT-116 colon,2.35 µM
same,GI50,NCI-H23 lung,1.95 µM
same,TGI,NCI-H23 lung,8.42 µM
same,GI50,OVCAR-5 ovarian,1.76 µM
same,TGI,OVCAR-5 ovarian,4.47 µM
same,GI50,MDA-MB-435,1.65 µM
same,TGI,MDA-MB-435,7.5 µM
same,GI50,MDA-MB-231 breast,1.94 µM
same,TGI,MDA-MB-231 breast,5.49 µM
same,GI50,SK-MEL-28 melanoma,0.5 µM
same,TGI,SK-MEL-28 melanoma,2.06 µM
same,GI50,PC-3 prostate,0.659 µM
same,TGI,PC-3 prostate,12.3 µM
same,GI50,U251 CNS,0.821 µM
same,TGI,U251 CNS,3.88 µM
same,GI50,HCT-15 colon,1.45 µM
same,TGI,HCT-15 colon,4.26 µM
same,GI50,TK-10 renal,3.76 µM
same,TGI,TK-10 renal,15.7 µM
same,GI50,786-0 renal,0.371 µM
same,TGI,786-0 renal,2.11 µM
same,GI50,ACHN renal,1.35 µM
same,TGI,ACHN renal,4.22 µM
same,GI50,SK-OV-3 ovarian,1.86 µM
same,TGI,SK-OV-3 ovarian,10.1 µM
same,GI50,SF-268 CNS,1.62 µM
same,TGI,SF-268 CNS,7.5 µM
same,GI50,SNB-19 CNS,1.49 µM
same,TGI,SNB-19 CNS,3.88 µM
same,GI50,KM12 colon,1.89 µM
same,TGI,KM12 colon,5.69 µM
same,GI50,OVCAR-8 ovarian,3.04 µM
same,TGI,OVCAR-8 ovarian,87.2 µM
same,GI50,SN12C renal,3.33 µM
same,TGI,SN12C renal,13.1 µM
same,GI50,COLO 205 colon,1.83 µM
same,TGI,COLO 205 colon,4.63 µM
same,GI50,HS 578T breast,0.364 µM
same,TGI,HS 578T breast,3.7 µM
same,GI50,HL-60(TB) leukemia,0.618 µM
same,TGI,HL-60(TB) leukemia,2.89 µM
same,GI50,T-47D breast,2.14 µM
same,TGI,T-47D breast,13.8 µM
same,GI50,CCRF-CEM leukemia,0.534 µM
same,TGI,CCRF-CEM leukemia,4.16 µM
same,GI50,K-562 leukemia,0.677 µM
same,TGI,K-562 leukemia,3.54 µM
same,GI50,SR leukemia,0.34 µM
same,TGI,SR leukemia,2.96 µM
same,GI50,UO-31 renal,0.937 µM
same,TGI,UO-31 renal,2.79 µM
same,GI50,SK-MEL-2 melanoma,1.1 µM
same,TGI,SK-MEL-2 melanoma,4.45 µM
same,GI50,RXF 393 renal,0.0653 µM
same,TGI,RXF 393 renal,0.328 µM

# Source: PubChem BioAssay (NCI)
